Measurements from article PMC11249646, “Small-Molecule Disruptors of the Interaction between Calcium- and Integrin-Binding Protein 1 and Integrin αIIbβ3 as Novel Antiplatelet Agents” (ACS Pharmacology & Translational Science, 2024).
pIC50: −log10 of the molar value. Where two headings read alike, the source gives them in different places.

Legend:
[1] = molecular target: T1, CIB1 and αIIb interaction (CIB1-GST : F-αIIb peptide) (Homo sapiens, UniProt Q99828); assay: FP assay, 1536-well qHTS format (primary and confirmatory screen); format: binding; conditions: for Curve Class (confirmatory screen): qHTS curve class; for pIC50: read-out: IC50
T1 construct: made in house; host or cells: BL-21 plus RIL cells (E. coli)
T1 sequence (Q99828 1-191): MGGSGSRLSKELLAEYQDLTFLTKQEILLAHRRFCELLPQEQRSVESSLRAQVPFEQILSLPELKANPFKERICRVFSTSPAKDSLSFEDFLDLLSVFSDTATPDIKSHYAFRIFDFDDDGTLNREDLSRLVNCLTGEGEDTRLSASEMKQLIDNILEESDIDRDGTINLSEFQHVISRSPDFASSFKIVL

[2] = molecular target: T2, GST-CIB1 : F-scrambled peptide (Homo sapiens, UniProt Q99828); assay: FP scrambled-peptide counter screen, 1536-well format; format: binding; conditions: for Curve Class (counterscreen): qHTS curve class; for IC50: read-out: IC50 [μM] (counterscreen)
T2 construct: made in house; host or cells: BL-21 plus RIL cells (E. coli)
T2 sequence (Q99828 1-191): T1 sequence (Q99828 1-191)

[3] = Table S3, confirmatory screen, YES/NO call
[4] = Table S3, confirmatory screen, a negative sign marks inhibitory curves
[5] = Table S3, confirmatory screen, negative = inhibition
[6] = Table S3, confirmatory screen, read-out: IC50 [μM] (confirmatory screen)
[7] = qHTS primary screen hits, Table S2, negative = inhibition
[8] = qHTS primary screen hits, Table S2, negative sign = inhibitory curve, several classes where COUNT > 1
[9] = qHTS primary screen hits, Table S2
[10] = Table S3, counterscreen, a negative sign marks inhibitory curves
[11] = Table S3, counterscreen, negative = inhibition
[12] = qHTS FP screen hits, Table S2, negative = inhibition
[13] = qHTS FP screen hits, Table S2, one class per curve where COUNT > 1, negative sign = inhibitory curve
[14] = Table S3, counterscreen, YES/NO call
[15] = confirmatory screen, negative sign = inhibitory curve
[16] = counterscreen, negative sign = inhibitory curve
[17] = confirmatory screen, read-out: IC50 [μM] (confirmatory screen)

Row | SMILES | Confirm? (confirmatory screen) [1, 3] | Curve Class (confirmatory screen) [1, 4] | Efficacy (%) (confirmatory screen) [1, 5] | Efficacy (%) [1, 7] [%] | Curve Class [1, 8] | pIC50 [1, 9] | Curve Class (counterscreen) [2, 10] | Efficacy (%) (counterscreen) [2, 11] | IC50 ([2]; Table S3, counterscreen) [µM] | Efficacy (%) [1, 12] [%] | Efficacy (%) (confirmatory screen) ([1]; confirmatory screen) | Confirm? (confirmatory screen) ([1]; confirmatory screen, YES/NO) | Curve Class (confirmatory screen) [1, 15] | Efficacy (%) (counterscreen) ([2]; counterscreen) | Curve Class (counterscreen) [2, 16] | IC50 ([2]; counterscreen) [µM] | IC50 [1, 17] [µM] | also measured
1 | Nc1cccc2c1C(=O)N(C1CCC(=O)NC1=O)C2=O (centres unmarked) [NCGC00346551-01] | YES | -2.2 | -78 | -43 | -2.2 | 4.67 | -2.1 | -91 | 44.7 | – | – | – | – | – | – | – | – | IC50 [1, 6]: 50.1 µM
2 | Nc1nc2c(s1)C(c1ccccc1C(F)(F)F)CC(=O)N2.O=C(O)C(F)(F)F (centres unmarked) [NCGC00488247-02] | – | 4 | -12 | – | – | – | -2.4 | -39 | 28.2 | -83 | – | – | – | – | – | – | – | Curve Class [1, 13]: -2.2; pIC50 ([1]; qHTS FP screen hits, Table S2): 4.35; Confirm? (counterscreen) [2, 14]: YES
3 | COc1ccc2[nH]c([S+]([O-])Cc3ncc(C)c(OC)c3C)nc2n1 (centres unmarked) [NCGC00386399-04] | YES | -1.2 | -44 | – | – | – | -2.2 | -72 | 44.7 | – | – | – | – | – | – | – | – | IC50 [1, 6]: 25.1 µM
4 | O=C(Cc1ccccc1)NC(c1ccco1)c1cc(Cl)c2cccnc2c1O.O=C(O)C(F)(F)F (centres unmarked) [NCGC00188377-01] | – | 4 | -25 | -35 | -2.2 | 4.40 | 3 | 61 | 89.1 | – | – | – | – | – | – | – | – | –
5 | COc1ccc2[nH]c([S+]([O-])Cc3ncc(C)c(OC)c3C)nc2c1 (centres unmarked) [NCGC00016925-10] | YES | -1.2 | -58 | -35 | -2.2 | 4.97 | -2.2 | -57 | 35.5 | – | – | – | – | – | – | – | – | IC50 [1, 6]: 28.2 µM
6 | Cc1cc(C(C#N)c2ccc(Cl)cc2)c(Cl)cc1NC(=O)c1cc(I)cc(I)c1O (centres unmarked) [NCGC00166312-02] | – | 4 | -32 | – | – | – | – | 117 | 31.6 | -35 | – | – | – | – | – | – | – | IC50 ([1]; IC50 [μM], qHTS FP screen hits, Table S2): 27 µM
7 | CCNC(=O)c1ccc(-c2ccc3ncnc(N4CCOCC4)c3c2)o1.O=C(O)C(F)(F)F [NCGC00238377-01] | – | – | – | -23 | -2.4 | 4.55 | – | – | – | – | -45 | YES | -1.4 | -38 | -2.2 | 44.7 | – | –
8 | CN1C[C@H](CNC(=O)OCc2ccccc2)C[C@@H]2c3cccc4c3c(cn4C)C[C@H]21 [NCGC00017257-10] | – | – | – | – | – | – | – | – | – | -75 | -126 | YES | -2.1 | -32 | -2.4 | 63.1 | 44.7 | pIC50 ([1]; qHTS FP screen hits, Table S2): 4.44; Confirm? (counterscreen) ([2]; counterscreen, YES/NO): YES
9 | O=C(O)C(F)(F)F.O=S(=O)(Nc1ccc(N2CCNCC2)cc1)c1ccc(NCc2ccc(Br)cc2O)cc1 [NCGC00343874-01] | YES | -2.4 | -41 | -76 | -2.2 | 4.10 | -2.2 | -58 | 44.7 | – | – | – | – | – | – | – | – | –
10 | CC(C)C(=O)OCc1ccc(-c2nn(Cc3ccccc3)c3ccccc23)o1 [NCGC00479272-01] | – | – | – | – | – | – | – | – | – | -25 | -30 | YES | -2.4 | -22 | 4 | – | 35.5 | pIC50 ([1]; qHTS FP screen hits, Table S2): 4.60; Confirm? (counterscreen) ([2]; counterscreen, YES/NO): YES
11 | CN(C)CCCCCCNC(=O)c1cccc(-c2cc(O)c3ncccc3c2)c1.O=C(O)C(F)(F)F [NCGC00247743-01] | – | 4 | -35 | -33 | -1.2 | 4.65 | -2.4 | -55 | 44.7 | – | – | – | – | – | – | – | – | Confirm? (counterscreen) [2, 14]: YES
12 | N#Cc1ccc(NS(=O)(=O)c2ccc(NC(=O)Cc3ccc(F)c(Cl)c3)cc2)cc1.O=C(O)C(F)(F)F [NCGC00343891-01] | – | 3 | 72 | -15 | -1.4 | 5.40 | 3 | 154 | 89.1 | – | – | – | – | – | – | – | – | –
13 | O=C(O)C(F)(F)F.O=S(=O)(Nc1nccs1)c1ccc(NCc2cc(F)cc(Cl)c2O)cc1 [NCGC00273967-01] | – | – | – | -28 | -1.4 | 5.74 | – | – | – | – | -40 | YES | -1.4 | 170 | 3 | 39.8 | 31.6 | Confirm? (counterscreen) ([2]; counterscreen, YES/NO): YES
14 | CCC(C)Cn1c(O)cc2nn(-c3nc4ccccc4s3)c(=O)c-2c1C.O=C(O)C(F)(F)F (centres unmarked) [NCGC00386995-01] | YES | -1.4 | -40 | – | – | – | -1.2 | -51 | 11.2 | – | – | – | – | – | – | – | – | IC50 [1, 6]: 35.5 µM
15 | CNc1ccc(C(=O)Oc2cc(ON=[N+]([O-])N(C)C)c([N+](=O)[O-])cc2[N+](=O)[O-])cc1 [NCGC00168169-02] | – | – | – | – | – | – | – | – | – | -30 | -42 | YES | -1.2 | -40 | -2.2 | 39.8 | 14.1 | Curve Class [1, 13]: -1.2; pIC50 ([1]; qHTS FP screen hits, Table S2): 4.65
16 | CCN1C(=O)c2ccccc2[S+]([O-])c2ccc(C(=O)NCc3cccc(F)c3)cc21 (centres unmarked) [NCGC00241657-01] | – | – | – | -70 | – | 4.40 | – | – | – | – | -68 | YES | -2.2 | -26 | -1.4 | 35.5 | 50.1 | Curve Class ([1]; qHTS primary screen hits, Table S2, negative sign = inhibitory curve): -2.2; Confirm? (counterscreen) ([2]; counterscreen, YES/NO): YES
